In the assay the test system is B6C3F1 mice, ip Sarcoma M5076, median survival T/C. Description: NCI In Vivo Anticancer Drug Screen. Data for tumor model Sarcoma M5076 (intraperitoneal) in B6C3F1 mice. As to conditions: endpoint: median survival time, higher = longer survival. An outline of the steps: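 Antitumour effect is judged in tumour-bearing mice by comparing survival after compound dosing against vehicle-only animals, reported as T/C.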

Where [1] appears, read: dose: 50.0 mg/kg/injection, schedule: Q04DX004 (ip), vehicle: Klucel (hydroxypropylcellulose) (HPC).
Setting [2] is: dose: 100.0 mg/kg/injection, schedule: Q04DX004 (ip), vehicle: Klucel (hydroxypropylcellulose) (HPC).
The mark [3] stands for this setting: dose: 200.0 mg/kg/injection, schedule: Q04DX004 (ip), vehicle: Klucel (hydroxypropylcellulose) (HPC).

Values joined by “and” are separate entries in the source; they are usually repeats but may differ in a detail not shown here. Equal values may be shown once. Toxic doses and inconclusive results are not listed.

For the compound `COC1CC2C=C(C)/C=C/C=C/C(=O)NC(c3ccccc3)C/C=C/CCC(O)CC(=O)C2=C1O` (stereo not given), the T/C runs as follows: (dose: 3.12 mg/kg/injection, schedule: Q04DX004 (ip), vehicle: Klucel (hydroxypropylcellulose) (HPC)) 112 % of control; (dose: 6.25 mg/kg/injection, schedule: Q04DX004 (ip), vehicle: Klucel (hydroxypropylcellulose) (HPC)) 118 % of control; (dose: 12.5 mg/kg/injection, schedule: Q04DX004 (ip), vehicle: Klucel (hydroxypropylcellulose) (HPC)) 110 % of control; (dose: 25.0 mg/kg/injection, schedule: Q04DX004 (ip), vehicle: Klucel (hydroxypropylcellulose) (HPC)) 123 % of control.

Consider `COc1cc(NCc2ccc3nc(N)nc(N)c3c2C)cc(OC)c1OC`, for which the T/C is 117 % of control and 122 % of control (dose: 7.5 mg/kg/injection, schedule: Q04DX004 (ip), vehicle: Klucel (hydroxypropylcellulose) (HPC)); 152 % of control and 154 % of control (dose: 30.0 mg/kg/injection, schedule: Q04DX004 (ip), vehicle: Klucel (hydroxypropylcellulose) (HPC)); 162 % of control and 172 % of control and 179 % of control (dose: 60.0 mg/kg/injection, schedule: Q04DX004 (ip), vehicle: Klucel (hydroxypropylcellulose) (HPC)); 167 % of control (dose: 120.0 mg/kg/injection, schedule: Q04DX004 (ip), vehicle: Klucel (hydroxypropylcellulose) (HPC)).

Regarding `CC(=O)[O][Pb]([O]C(C)=O)([c]1ccccc1)[c]1ccccc1`, the T/C is 100 % of control under setting [1]; 104 % of control under setting [2]; 99 % of control under setting [3]; 97 % of control (dose: 400.0 mg/kg/injection, schedule: Q04DX004 (ip), vehicle: Klucel (hydroxypropylcellulose) (HPC)); 114 % of control (dose: 800.0 mg/kg/injection, schedule: Q04DX004 (ip), vehicle: Klucel (hydroxypropylcellulose) (HPC)).

Take `O=C(Nc1ccccc1[N+](=O)[O-])C1C(=O)C(=O)N(c2ccccc2[N+](=O)[O-])C1=O` (stereo not given): the T/C runs as follows: under setting [1], 101 % of control; under setting [2], 89 % of control; under setting [3], 92 % of control.

For the compound `Cn1nc2c(c(Cl)c1=O)Nc1ccccc1O2`, the T/C (dose: 37.5 mg/kg/injection, schedule: Q04DX004 (ip), vehicle: saline with Tween-80) is 104 % of control; the T/C (dose: 75.0 mg/kg/injection, schedule: Q04DX004 (ip), vehicle: saline with Tween-80) was 97 % of control; the T/C (dose: 150.0 mg/kg/injection, schedule: Q04DX004 (ip), vehicle: saline with Tween-80) was 96 % of control.

Take `CO[C@H](/C(C)=C/C=C/C(C)=C/c1coc(C)n1)[C@H](C)[C@H]1C[C@@H](O)[C@@]2(C)O[C@H]2/C=C/[C@@H](C)[C@@H]2C[C@@H](CC(=O)O2)C[C@H]2O[C@@H]2C(=O)O1`: the T/C is 110 % of control (dose: 0.06 mg/kg/injection, schedule: Q04DX004 (ip), vehicle: other); 116 % of control (dose: 0.09 mg/kg/injection, schedule: Q04DX004 (ip), vehicle: Klucel (hydroxypropylcellulose) (HPC)); 108 % of control and 113 % of control (dose: 0.09 mg/kg/injection, schedule: Q04DX004 (ip), vehicle: other); 118 % of control (dose: 0.12 mg/kg/injection, schedule: Q04DX004 (ip), vehicle: Klucel (hydroxypropylcellulose) (HPC)); 109 % of control (dose: 0.13 mg/kg/injection, schedule: Q01DX005 (sc), vehicle: other); 115 % of control and 121 % of control (dose: 0.13 mg/kg/injection, schedule: Q04DX004 (ip), vehicle: Klucel (hydroxypropylcellulose) (HPC)). The T/C reads like this: (dose: 0.13 mg/kg/injection, schedule: Q04DX004 (ip), vehicle: other) 110 % of control; (dose: 0.13 mg/kg/injection, schedule: Q04DX004 (iv), vehicle: other) 112 % of control; (dose: 0.2 mg/kg/injection, schedule: Q01DX001 (sc), vehicle: other) 102 % of control; (dose: 0.2 mg/kg/injection, schedule: Q01DX005 (sc), vehicle: other) 114 % of control; (dose: 0.2 mg/kg/injection, schedule: Q01DX013 (ip), vehicle: other) 162 % of control; (dose: 0.2 mg/kg/injection, schedule: Q04DX004 (ip), vehicle: Klucel (hydroxypropylcellulose) (HPC)) 119 % of control. Further, the T/C runs as follows: (dose: 0.2 mg/kg/injection, schedule: Q04DX004 (ip), vehicle: other) 115 % of control and 121 % of control and 122 % of control; (dose: 0.2 mg/kg/injection, schedule: Q04DX004 (iv), vehicle: other) 110 % of control; (dose: 0.25 mg/kg/injection, schedule: Q04DX004 (ip), vehicle: Klucel (hydroxypropylcellulose) (HPC)) 118 % of control; (dose: 0.3 mg/kg/injection, schedule: Q01DX001 (sc), vehicle: other) 105 % of control; (dose: 0.3 mg/kg/injection, schedule: Q01DX005 (sc), vehicle: other) 115 % of control; (dose: 0.3 mg/kg/injection, schedule: Q01DX013 (ip), vehicle: other) 163 % of control. Besides, the T/C runs as follows: (dose: 0.3 mg/kg/injection, schedule: Q04DX004 (ip), vehicle: Klucel (hydroxypropylcellulose) (HPC)) 123 % of control; (dose: 0.3 mg/kg/injection, schedule: Q04DX004 (ip), vehicle: other) 123 % of control; (dose: 0.3 mg/kg/injection, schedule: Q04DX004 (iv), vehicle: other) 117 % of control; (dose: 0.44 mg/kg/injection, schedule: Q04DX004 (iv), vehicle: other) 122 % of control; (dose: 0.45 mg/kg/injection, schedule: Q01DX001 (sc), vehicle: other) 109 % of control; (dose: 0.67 mg/kg/injection, schedule: Q01DX001 (sc), vehicle: other) 99 % of control. The T/C was 150 % of control (dose: 0.67 mg/kg/injection, schedule: Q04DX004 (ip), vehicle: Klucel (hydroxypropylcellulose) (HPC)); 104 % of control (dose: 1.0 mg/kg/injection, schedule: Q01DX001 (sc), vehicle: other); 169 % of control (dose: 1.0 mg/kg/injection, schedule: Q04DX004 (ip), vehicle: other); 110 % of control (dose: 1.5 mg/kg/injection, schedule: Q01DX001 (sc), vehicle: other); 161 % of control (dose: 1.5 mg/kg/injection, schedule: Q04DX004 (ip), vehicle: Klucel (hydroxypropylcellulose) (HPC)); 122 % of control (dose: 0.67 micrograms per hour, schedule: Q#X X024 (sc), vehicle: other). For the same compound, the T/C is 152 % of control (dose: 0.67 micrograms per hour, schedule: Q#X X072 (sc), vehicle: other); 150 % of control (dose: 1.0 micrograms per hour, schedule: Q#X X072 (sc), vehicle: other); 110 % of control (dose: 55.6 micrograms/kg/injection, schedule: Q03HX008 (sc), vehicle: other); 118 % of control (dose: 83.4 micrograms/kg/injection, schedule: Q03HX008 (sc), vehicle: other); 123 % of control (dose: 125.0 micrograms/kg/injection, schedule: Q03HX008 (sc), vehicle: other); 120 % of control (dose: 281.0 micrograms/kg/injection, schedule: Q03HX008 (sc), vehicle: other).

Take `CC(=O)c1cccc(NC2C(N)C(NC(=O)N(C)C)(C(C)O)C(C)(O)C2(O)COC(=O)c2c(C)cccc2O)c1` (stereo not given): the T/C by setting is: (dose: 2.5 mg/kg/injection, schedule: Q04DX004 (ip), vehicle: saline) 112 % of control and 114 % of control; (dose: 5.0 mg/kg/injection, schedule: Q04DX004 (ip), vehicle: saline) 105 % of control and 115 % of control; (dose: 10.0 mg/kg/injection, schedule: Q04DX004 (ip), vehicle: saline) 117 % of control and 120 % of control; (dose: 20.0 mg/kg/injection, schedule: Q04DX004 (ip), vehicle: saline) 115 % of control.

On to `CO[C@@H]1C2=CC=CC=C[C@H]2n2c(=O)n(C)c(=O)n21`, for which the T/C was 104 % of control (dose: 37.5 mg/kg/injection, schedule: Q04DX004 (ip), vehicle: other); 100 % of control (dose: 75.0 mg/kg/injection, schedule: Q04DX004 (ip), vehicle: other); 100 % of control (dose: 150.0 mg/kg/injection, schedule: Q04DX004 (ip), vehicle: other); 104 % of control (dose: 300.0 mg/kg/injection, schedule: Q04DX004 (ip), vehicle: other).

As for `O=S1(=O)C(c2ccc(F)cc2)=C(O)c2cc3ccccc3nc21`, the T/C reads like this: (dose: 17.19 mg/kg/injection, schedule: Q04DX004 (ip), vehicle: sodium bicarbonate) 97 % of control; (dose: 34.38 mg/kg/injection, schedule: Q04DX004 (ip), vehicle: sodium bicarbonate) 93 % of control; (dose: 68.75 mg/kg/injection, schedule: Q04DX004 (ip), vehicle: sodium bicarbonate) 93 % of control.

Turning to `Clc1ccc(CC(Cn2ccnc2)c2ccccc2Cl)cc1` (stereo not given), the T/C runs as follows: (dose: 15.63 mg/kg/injection, schedule: Q04DX004 (ip), vehicle: saline with Tween-80) 111 % of control; (dose: 31.25 mg/kg/injection, schedule: Q04DX004 (ip), vehicle: saline with Tween-80) 102 % of control; (dose: 62.5 mg/kg/injection, schedule: Q04DX004 (ip), vehicle: saline with Tween-80) 96 % of control; (dose: 125.0 mg/kg/injection, schedule: Q04DX004 (ip), vehicle: saline with Tween-80) 87 % of control.

Values taken from PubChem BioAssay AID292 (DTP/NCI, 2004).
